{"source": "patent US9233121B2", "about": "“Compositions and methods for the treatment of cancer” (BOARD OF REGENTS OF THE UNIVERSITY OF NEBRASKA, priority 2011, dated 2016)", "assay_type_in_all_cases": "cell-based, human", "key": {"[1]": {"test_system": "ALDH1", "assay": "Western blot of ALDH1 in gemcitabine treated SP cells", "conditions": "gemcitabine (6 μM) treated SW1990-SP cells compared to non-treated SP cells", "procedure": "(§1) SP and NSP cells were processed for protein extraction and western blotting using standard procedures. Briefly, the cells were washed twice in PBS and lysed in RIPA buffer (100 mM Tris, 5 mM EDTA, 5% NP40; pH8.0) containing protease inhibitors (1 mM phenyl-methyl sulphonyl fluoride, 1 μg/ml aprotinin, 1 μg/ml leupeptin) and kept at 4° C. and supernatant were collected. Resolved proteins were transferred on to the PVDF membrane. After a quick wash in PBST (Phosphate buffered saline and 0.1% Tween 20), the membranes were blocked in 5% nonfat dry milk in PBS for at least 1 hour and then incubated with primary antibodies (anti-hPaf1/PD2, anti-ALDH1, anti-CD133, anti-CD44, anti-Shh and anti-β-actin) (diluted in 3% BSA in PBS) for overnight at 4° C. Then the membrane was washed (3×10 minutes) in PBST at room temperature and probed with 1:2000 diluted horseradish peroxidase-conjugated anti-mouse or anti-rabbit secondary antibodies for 1 hour at room temperature and washed 5×10 minutes with PBST. The signal was detected with an ECL chemiluminescence kit (Amersham Bioscience, UK).\n(§2) Tumor relapse occurs in cancer patients due to the important phenomena known as drug resistance. […] The expression of ALDH1 was analyzed in the gemcitabine treated SW1990-SP cells."}, "[2]": {"test_system": "SW1990 NSP cells", "assay": "Drug sensitivity: gemcitabine treatment of NSP cells", "conditions": "6.0 μM gemcitabine, several days", "procedure": "(§3) Both SP and NSP cells were cultured in gelatinized tissue culture dishes in stem cell specific medium containing Dulbecco's Modified Eagle's Medium (DMEM; GIBCO) and F12 supplemented with 10% ES specific fetal bovine serum (FBS; Invitrogen), L-glutamine (GIBCO), 100 nM nonessential amino acids (GIBCO), 1000 U/ml LIF (Sigma), bFGF (Invitrogen) and Pen/Strp. Two different conditions were maintained for both SP and NSP cells. First, both SP and NSP cells were maintained in the above-mentioned stem cell specific media and in another condition both the cells were maintained for a few days in 10% FBS containing DMEM media which was replaced with stem cell specific medium. The SP cells have also been grown in stem cell specific media and NSP cells have been grown in 10% FBS containing DMEM media.\n(§4) The human hPaf1/PD2 region was targeted with specific siRNA (sequence 5′-[…]-3′; SEQ ID NO: 1). Synthetic sense and antisense oligonucleotides (Dharmacon, Lafayette, Colo.) were annealed in 100 mM potassium acetate, 30 mM HEPES-KOH (pH 7.4), and 2 mM magnesium acetate for one minute at 90° C. and one hour at 37° C., and frozen. […]\nas §2"}, "[3]": {"test_system": "SW1990-SP cells", "assay": "Drug sensitivity: gemcitabine treatment of SP cells", "conditions": "6.0 μM gemcitabine, 4, 10 and 20 days", "procedure": "as §3, §4, §2"}, "[4]": {"test_system": "hPaf1/PD2", "assay": "Western blot of hPaf1/PD2 in gemcitabine treated SP cells", "conditions": "gemcitabine (6 μM) treated SW1990-SP cells compared to untreated SP cells", "procedure": "as §1"}, "[5]": {"test_system": "SW1990-SP cells", "assay": "hPaf1/PD2 knockdown with gemcitabine treatment in SP cells: phenotype, viability, FACS apoptosis", "procedure": "The human hPaf1/PD2 region was targeted with specific siRNA (sequence 5′-[…]-3′; SEQ ID NO: 1). Synthetic sense and antisense oligonucleotides (Dharmacon, Lafayette, Colo.) were annealed in 100 mM potassium acetate, 30 mM HEPES-KOH (pH 7.4), and 2 mM magnesium acetate for one minute at 90° C. and one hour at 37° C., and frozen. Oligonucleotides were transfected into cells with TransIT-TKO (Mirus, Madison, Wis.) in accordance with the supplier's recommendations. Gemcitabine (6 μM) treatment was done for 20 days.\nFollowing the previous drug sensitivity experiment, hPaf1/PD2 was transiently knocked down using RNAi oligos. The knockdown was carried out in vitro under stem cell specific culture condition."}}}
{"smiles": "Nc1ccn([C@@H]2O[C@H](CO)[C@@H](O)C2(F)F)c(=O)n1", "note": "[gemcitabine]", "values": [{"measurement": "expression of ALDH1 (western blot)", "setting": "[1]", "value": "significantly elevated expression of ALDH1"}, {"measurement": "cell death of NSP cells on drug treatment", "setting": "[2]", "value": "Cell death was observed"}, {"measurement": "growth of SP cells on drug treatment", "setting": "[3]", "value": "continued to grow even after 4, 10 and 20 days of treatment"}, {"measurement": "expression of hPaf1/PD2 (western blot)", "setting": "[4]", "value": "maintained"}, {"measurement": "percentage of cell death (FACS-apoptosis analysis, PI staining)", "setting": "[5]; hPaf1/PD2 knockdown SP cells with gemcitabine treatment compared to control cells", "value": "increased percentage of cell death"}, {"measurement": "viability of SP cells", "setting": "[5]; seven days gemcitabine with transient knockdown (72 hours) of hPaf1/PD2 in SW1990-SP cells", "value": "decreased the viability of SP cells"}]}
